Reference: patent US20250066335A1, “POLYSUBSTITUTED 4-HYDROXYPYRIDINE AND 4-HYDROXYQUINOLINE DERIVATIVES AS GPR84 ANTAGONISTS” (UNIVERSITY OF COPENHAGEN, priority 2021, published 2025)

Biological target: T1, GPR84 (Homo sapiens, UniProt Q9NQS5)
T1 construct: expressed in transfected cells; host or cells: HTLA cells (HEK293 line stably expressing a tTA-dependent luciferase reporter and a β-arrestin2-TEV fusion gene), transiently transfected with PEI
Experiment: PRESTO-Tango β-arrestin2 recruitment assay, GPR84 antagonistic activity
Type: cell-based
Conditions: antagonist activity in the Presto-TANGO assay; inhibition of the response from the agonist ZQ-16 (100 nM); HTLA cells
Description: PRESTO-Tango β-arrestin recruitment assay (W.K. Kroeze et al., 2015). HTLA cells (a HEK293 cell line stably expressing a tTA-dependent luciferase reporter and a β-arrestin2-TEV fusion gene) were maintained in Dulbecco's Modified Eagle's Medium (DMEM) supplemented with 10% Fetal Bovine Serum (dFBS), 100 U/mL penicillin and 100 μg/mL streptomycin, 2 μg/mL puromycin and 100 μg/mL hygromycin B in a humidified atmosphere at 37° C. in 5% CO2. For transfection, cells were plated at 9×10^6 to 10×10^6 cells per 15-cm cell-culture dish (day 1). The following day (day 2), cells were transfected by adding 5 μg DNA and 15 μg polyethylenimine (PEI) diluted in 1 mL Opti-MEM (Reduced Serum Medium supplied by ThermoFisher). On day 3, transfected cells were transferred at 25000 cells per well in 40 μl of medium into poly-l-lysine-coated and rinsed 384-well white, clear-bottomed cell-culture plates (Greiner Bio-One). On day 4, dilutions of the ligands to be tested were prepared in 1% dFBS DMEM and 10 μL were added to each well. On day 5, 20 μl per well of Bright-Glo solution (Promega) diluted 10-fold in assay buffer (Hanks' Balanced Salt Solution [HBSS], 20 mM HEPES, 1 mM CaCl2, 1 mM MgCl2, pH adjusted to 7.4 by 5 M NaOH) was added to each well. After incubation for 20 min at room temperature, luminescence was counted in an Enspire luminescence counter at 384 nm. Results in the form of relative luminescence units (RLU) were exported into Excel spreadsheets, and GraphPad Prism was used for analysis of data. To measure constitutive activity, no ligand was added on day 4.
The GPR84 antagonistic activity of the compounds was determined using the PRESTO-Tango β-arrestin2 recruitment assay (Assay I, see assays above), from which the concentration of each compound required for 50% inhibition (IC50) of the response from the agonist ZQ-16 (100 nM) was determined. The antagonistic activity for each compound is given in Table 1 as the pIC50, which is the negative log of the IC50 value when converted to molar.

T1 sequence (Q9NQS5 whole entry, the tested form may be a part): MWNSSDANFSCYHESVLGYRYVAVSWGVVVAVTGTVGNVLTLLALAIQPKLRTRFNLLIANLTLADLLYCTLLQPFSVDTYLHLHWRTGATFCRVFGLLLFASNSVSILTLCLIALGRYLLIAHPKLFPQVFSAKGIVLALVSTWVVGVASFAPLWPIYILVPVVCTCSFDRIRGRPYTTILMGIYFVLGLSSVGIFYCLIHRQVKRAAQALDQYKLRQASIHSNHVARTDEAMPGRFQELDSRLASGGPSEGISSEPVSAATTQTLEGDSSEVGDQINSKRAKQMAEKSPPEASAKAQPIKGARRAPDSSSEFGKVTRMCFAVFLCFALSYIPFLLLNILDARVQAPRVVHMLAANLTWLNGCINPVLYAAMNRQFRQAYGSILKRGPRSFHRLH

SMILES	IC50
CCCc1ccc(CCc2nc(OCC3CCCCO3)cc(O)c2CCC(=O)OCC)cc1 (centres unmarked) [Example 13, Ethyl 3-(4-hydroxy-2-(4-propylphenethyl)-6-((tetrahydro-2H-pyran-2-yl)methoxy)pyridin-3-yl)propanoate]	13.2 nM
Cc1c(O)cc(OCC2COCCO2)nc1CCc1ccc(OCCN)cc1 (centres unmarked) [Example 29, 2-(4-(2-(6-((1,4-Dioxan-2-yl)methoxy)-4-hydroxy-3-methylpyridin-2-yl)ethyl)phenoxy)ethan-1-aminium chloride]	16.2 nM
CCCc1ccc(CCc2nc(OCC3CCCCO3)cc(O)c2-c2ccc(OCC(=O)O)cc2)cc1 (centres unmarked) [Example 19, 2-(4-(4-Hydroxy-2-(4-propylphenethyl)-6-((tetrahydro-2H-pyran-2-yl)methoxy)pyridin-3-yl)phenoxy)acetic acid]	93.3 nM
CCCc1ccc(CCc2nc(OCC3CCCCO3)cc(O)c2C(C)C)cc1 (centres unmarked) [Example 8, 3-Isopropyl-2-(4-propylphenethyl)-6-((tetrahydro-2H-pyran-2-yl)methoxy)pyridin-4-ol]	81.3 nM

These reach a lower IC50. Values come first.

IC50	SMILES
6.61 nM	CCCc1ccc(CCc2nc(OCC3CCCCO3)cc(O)c2CCC)cc1 (centres unmarked) [Example 7, 3-Propyl-2-(4-propylphenethyl)-6-((tetrahydro-2H-pyran-2-yl)methoxy)pyridin-4-ol]
1.07 nM	CCOc1ccc(CCc2nc(OC[C@@H]3COCCO3)cc(O)c2C)cc1 [Example 24, (S)-6-((1,4-dioxan-2-yl)methoxy)-2-(4-ethoxyphenethyl)-3-methylpyridin-4-ol]
0.501 nM	CCOc1ccc(CCc2nc(OCC3COCCO3)cc(O)c2CC)cn1 (centres unmarked) [Example 49, 6-((1,4-Dioxan-2-yl)methoxy)-2-(2-(6-ethoxypyridin-3-yl)ethyl)-3-ethylpyridin-4-ol]
2.95 nM	CCc1c(O)cc(OCC2COCCO2)nc1CCc1ccc(OCc2nc(C)no2)cc1 (centres unmarked) [Example 40, 6-((1,4-Dioxan-2-yl)methoxy)-3-ethyl-2-(4-((3-methyl-1,2,4-oxadiazol-5-yl)methoxy)phenethyl)pyridin-4-ol]
